Entries after “also recorded” stand apart in the source; their conditions may differ.
What was measured:
[1] = D-allose Excretion Routes ([^14 C]D-allose, liquid scintillation counting); assay type: in vivo, rat
Excerpt: (§1) This study was patterned after that Example 1 where a satellite group of animals received radiolabeled D-allose to establish excretion routes. On day 28, the animals in the satellite groups (5 controls, 5 males and 5 females) received a single dose of [^14 C]D-allose for-study days 1-28 at the same dose concentration as the non-radiolabeled material except for the "Control Satellite Group" which received a single high dose containing radiolabeled D-allose.
(§2) On days 1-27, all control group animals (main and satellite) received deionized water at the same dosage volume as the test animals. However, on day 28 the satellite control animals became "Unadapted High Dose Test Animals" in that they received a high dose (5.1 g/kg) of radiolabeled D-allose. In this manner the "Unadapted High Dose Test Animals" could be directly compared to the multiple high dose animals which were adapted by administration of the high dose for 28 days.
Each rat was observed twice daily for mortality, morbidity and overt signs of toxicity. Detailed observations were performed once during each study week. Individual body weights, food consumption, food efficiency and water consumption were recorded daily. […] Feces samples were collected at 24, 48, 72 and 96 hours after radiolabeled dosing from the satellite group animals. Duplicate aliquots of expired air solution, urine, feces and cage wash were analyzed by liquid scintillation counting (LSC). At study termination, all animals were euthanized. The carcasses from the satellite groups were analyzed for radioactive content only.

[2] = 28-day rat gavage study: Biochemistry and urinalysis; assay type: in vivo, rat (Crl:CD®BR); conditions: 28 days
Procedure: (§3) D-allose or deionized water was administered to 15 male and 15 female rats (Crl:CD®BR rats approximately 4 weeks of age from Charles River Laboratories) by gavage once daily for 28 days at dosage levels of D-allose of 3.1 and 5.1 g/Kg/day.
(§4) Each rat was observed twice daily for mortality, morbidity and overt signs of toxicity. Detailed observations were performed once during each study week. Individual body weights, food consumption, food efficiency and water consumption were recorded daily. Hematology, biochemistry and urinalysis evaluations were conducted on all male and female animals during the last week of study. At study termination, all animals were euthanized. […] A complete set of major tissues and organs was harvested and selected organ weights were determined. Protocol-specified tissues were processed histologically and microscopic examination was conducted.
(§5) Clinical laboratory studies were conducted on all main animals at termination of study. Blood samples were obtained from the orbital sinus following an overnight fasting period in which water was available. Urine was collected during the fasting period.

[3] = tested on: chinese hamster ovary cells; assay type: cell-based
Excerpt: 3) chromosomal aberrations in chinese hamster ovary cells;

human lymphocytes = assay type: cell-based
Excerpt: 5) sister chromatid exchange in human lymphocytes with and without activation.

Male Rats = assay: Acute Oral Toxicity Study in Male Rats; assay type: in vivo, rat
Excerpt: Acute Oral Toxicity Study in Male Rats

mouse lymphoma = assay type: cell-based
Excerpt: 2) mouse lymphoma forward mutation assay;

[4] = rat, in vivo
Excerpt: as §1, §2
HPLC (High Pressure Liquid Chromatography) of urine from treated animals was compared with C^14 radiolabeled D-allose spiked urine from control animals.

Crl:CD®BR rats = tested on: Crl:CD®BR rats; set-up: species or system rat (Crl:CD®BR); conditions: rat, in vivo
Procedure: as §3, §4
The rats were observed twice daily for signs of overt toxicity at the times of the morbidity/mortality checks. Detailed observations were conducted once each study week during the 28 days of the study.
Individual body weights were recorded daily for the 28 days of the study.
For the first 28 days of the study, individual food consumption was recorded daily and food efficiency was calculated. […] Increases and decreases occurred in food efficiency values for males and females at all treatment levels, with no obvious trend.
Individual water consumption was recorded daily for the 28 days of the study.

water solubility = assay type: physicochemical
Balb cells = assay type: cell-based
Excerpt: 4) in vitro transformation of Balb cells;

[5] = tested on: segmented neutrophils, leukocytes, erythrocytes, platelets; assay: 28-day rat gavage study: Hematology (blood cell counts); assay type: in vivo, rat (Crl:CD®BR); conditions: for Segmented Neutrophils (mean): terminal (28 days); for Segmented Neutrophils (mean) / Band Neutrophils (mean) / Basophils (mean) / Other Cells (mean) / Eosinophils (mean) / Monocytes (mean) / Erythrocytes (mean) / Leukocytes (mean) / Platelets (mean) / Lymphocytes (mean): N 5; for Band Neutrophils (mean) / Basophils (mean) / Other Cells (mean) / Eosinophils (mean) / Monocytes (mean) / Erythrocytes (mean) / Leukocytes (mean) / Platelets (mean) / Lymphocytes (mean): terminal; for Band Neutrophils (mean) / Basophils (mean) / Other Cells (mean): control 0.0; for Leukocytes (mean): control 9.6; for Platelets (mean): p ≤ 0.01; for Lymphocytes (mean): control 7.4
Procedure: as §3, §4, §5
(§6) As a result, bone marrow smears were examined for all animals.

salmonella = assay: salmonella/mammalian--microsome reverse mutation assay; assay type: cell-based
Excerpt: 1) salmonella/mammalian--microsome reverse mutation assay;

bone marrow = assay: 28-day rat gavage study: Bone Marrow smears; assay type: in vivo, rat (Crl:CD®BR)
Procedure: as §3, §4, §6

major tissues and organs = assay: 28-day rat gavage study: Anatomic Pathology (necropsy and histopathology); assay type: in vivo, rat (Crl:CD®BR); conditions: 28 days gavage, listed organs
Procedure: as §3, §4

[6] = acute oral, 5 grams/Kg, male rats
[7] = females, D-allose 3.1 g/kg/day, control 0.1
[8] = males, D-allose 3.1 g/kg/day, control 0.2
[9] = males, D-allose 5.1 g/kg/day, control 0.2

O=C[C@H](O)[C@H](O)[C@H](O)[C@H](O)CO [D-allose]
radioactivity retained in carcass ([1]; all groups): less than 1%
excretion of radiolabel in the feces, of the recovered dose ([1]; corrected for recovery): 6 to 9%
urinary excretion, of the recovered dose ([1]; corrected for recovery, average, all three test groups): approximately 90%
differences in the rates or routes of excretion between treatment groups ([1]; radiolabeled D-allose): no substantial differences
radioactivity excretion routes ([1]; radiolabeled D-allose, rats): most of the radioactivity was excreted in the urine with a small amount in the feces and lesser amounts in exhaled air and retained in the carcass
Radiation in exhaled air ([1]; rat, in vivo): less than 0.5%
effects on survival, appearance, behavior, body weights, food consumption or water consumption ([1]; rat, in vivo): no D-allose-related effects
Cholesterol ([2]; males, high dose (5.1 g/kg/day), vs. 51 mg/dl, significantly increased): 72 mg/dL
pH ([2]; treated animals): decreased
Urine volumes ([2]; treated groups): decreased
urine specific gravity ([2]; treated groups): increased
mutagenic properties [3]: no mutagenic properties
mutagenic properties (human lymphocytes): no mutagenic properties
body weight changes (Male Rats; [6]): no remarkable body weight changes
mortalities (Male Rats; [6]): no mortalities
pharmacotoxic signs (Male Rats; [6]): no pharmacotoxic signs
visible post-mortem abnormalities (Male Rats; rat, in vivo, po): no visible post-mortem abnormalities
mutagenic properties (mouse lymphoma): no mutagenic properties
HPLC of urine from treated animals [4]: major peak corresponding to the spiked D-allose peak
undigested D-allose in the urine [4]: confirmed the presence of undigested D-allose in the urine
effect on appearance or behavior (clinical signs) (Crl:CD®BR rats): no definitive D-allose-related effect
mean food consumption values or mean food efficiency values (Crl:CD®BR rats): no D-allose-related effect
mean water consumption values (Crl:CD®BR rats): no D-allose-related effect
water solubility (water solubility): high water solubility
mutagenic properties (Balb cells): no mutagenic properties
segmented neutrophils in some high dose group animals ([5]; 5.1 g/Kg/day, 28 days): very low or not countable
platelets (result in words) ([5]; 28 days gavage, 3.1 and 5.1 g/Kg/day, both sexes): significant reduction in platelet formation; also recorded: dose-related reduction in numbers in both sexes; also recorded: dose-related reduction in platelet counts in both sexes
segmented neutrophils (result in words) ([5]; 28 days gavage, 3.1 and 5.1 g/Kg/day, rats): dose-related reduction in segmented neutrophil production; also recorded: marked decrease in segmented neutrophils which was dose-related; also recorded: reduction in segmented neutrophils
effect on the erythroid series ([5]; 28 days gavage, rats): no apparent effect on the erythroid series
total leukocyte counts (result in words) ([5]; 28 days gavage, rats): reductions in total leukocyte counts
Segmented Neutrophils (mean) ([5]; females, D-allose 3.1 g/kg/day, control 1.8): 0.5 × 10^3 /cmm
Band Neutrophils (mean) ([5]; females, D-allose 3.1 g/kg/day): 0.0 × 10^3 /cmm
Basophils (mean) ([5]; females, D-allose 3.1 g/kg/day): 0.0 × 10^3 /cmm
Other Cells (mean) ([5]; females, D-allose 3.1 g/kg/day): 0.0 × 10^3 /cmm
Eosinophils (mean) [5, 7]: 0.1 × 10^3 /cmm
Monocytes (mean) [5, 7]: 0.1 × 10^3 /cmm
Erythrocytes (mean) ([5]; females, D-allose 3.1 g/kg/day, control 6.17): 6.24 × 10^6 /cumm
Leukocytes (mean) ([5]; females, D-allose 3.1 g/kg/day): 6.5 × 10^3 /cumm
Platelets (mean) ([5]; females, D-allose 3.1 g/kg/day, control 992): 567 × 10^3 /cmm
Segmented Neutrophils (mean) ([5]; females, D-allose 5.1 g/kg/day, control 1.8): 0.1 × 10^3 /cmm
Band Neutrophils (mean) ([5]; females, D-allose 5.1 g/kg/day): 0.0 × 10^3 /cmm
Basophils (mean) ([5]; females, D-allose 5.1 g/kg/day): 0.0 × 10^3 /cmm
Other Cells (mean) ([5]; females, D-allose 5.1 g/kg/day): 0.0 × 10^3 /cmm
Eosinophils (mean) ([5]; females, D-allose 5.1 g/kg/day, control 0.1): 0.1 × 10^3 /cmm
Erythrocytes (mean) ([5]; females, D-allose 5.1 g/kg/day, control 6.17): 6.42 × 10^6 /cumm
Leukocytes (mean) ([5]; females, D-allose 5.1 g/kg/day): 5.4 × 10^3 /cumm
Platelets (mean) ([5]; females, D-allose 5.1 g/kg/day, control 992): 414 × 10^3 /cmm
Segmented Neutrophils (mean) ([5]; males, D-allose 3.1 g/kg/day, control 1.9): 0.9 × 10^3 /cmm
Band Neutrophils (mean) ([5]; males, D-allose 3.1 g/kg/day): 0.0 × 10^3 /cmm
Basophils (mean) ([5]; males, D-allose 3.1 g/kg/day): 0.0 × 10^3 /cmm
Other Cells (mean) ([5]; males, D-allose 3.1 g/kg/day): 0.0 × 10^3 /cmm
Eosinophils (mean) [5, 8]: 0.1 × 10^3 /cmm
Monocytes (mean) [5, 8]: 0.1 × 10^3 /cmm
Erythrocytes (mean) ([5]; males, D-allose 3.1 g/kg/day, control 6.85): 7.10 × 10^6 /cumm
Lymphocytes (mean) ([5]; males, D-allose 3.1 g/kg/day): 9.1 × 10^3 /cmm
Leukocytes (mean) ([5]; males, D-allose 3.1 g/kg/day): 10.3 × 10^3 /cumm
Platelets (mean) ([5]; males, D-allose 3.1 g/kg/day, control 1072): 546 × 10^3 /cmm
Segmented Neutrophils (mean) ([5]; males, D-allose 5.1 g/kg/day, control 1.9): 0.2 × 10^3 /cmm
Band Neutrophils (mean) ([5]; males, D-allose 5.1 g/kg/day): 0.0 × 10^3 /cmm
Basophils (mean) ([5]; males, D-allose 5.1 g/kg/day): 0.0 × 10^3 /cmm
Other Cells (mean) ([5]; males, D-allose 5.1 g/kg/day): 0.0 × 10^3 /cmm
Eosinophils (mean) [5, 9]: 0.1 × 10^3 /cmm
Monocytes (mean) [5, 9]: 0.1 × 10^3 /cmm
Erythrocytes (mean) ([5]; males, D-allose 5.1 g/kg/day, control 6.85): 7.03 × 10^6 /cumm
Lymphocytes (mean) ([5]; males, D-allose 5.1 g/kg/day): 5.6 × 10^3 /cmm
Leukocytes (mean) ([5]; males, D-allose 5.1 g/kg/day, significantly different from control): 5.9 × 10^3 /cumm
Platelets (mean) ([5]; males, D-allose 5.1 g/kg/day, control 1072): 320 × 10^3 /cmm
duration of suppressive effect ([5]; rats, suppression of segmented neutrophil and platelet production): remains only so long as D-allose administration is continued
mutagenic properties (salmonella): no mutagenic properties
numbers of late stage neutrophils in bone marrow (bone marrow; 3.1 and 5.1 g/kg/day, most striking in the high dose groups): decreased numbers of late stage neutrophils
mature myeloid cells in the bone marrow smears (bone marrow; 28 days gavage, rats): marked reduction in mature myeloid cells
bone marrow erythroid series (bone marrow; all groups): well represented with a normal maturation sequence
cytological integrity of the cells in the neutrophil series (bone marrow; both dosage groups (3.1 and 5.1 g/kg/day)): overall decrease in cytological integrity
Myeloid to erythroid ratios in bone marrows (bone marrow; both treatment groups, usually, control approximately 1.6 to 3.0): less than 1.0
bone marrow cellularity and megakaryocytes (bone marrow; control and both treatment groups): very cellular with adequate numbers of active megakaryocytes in varying stages of maturity
findings at necropsy or on histopathological examination (major tissues and organs): no treatment related findings
